Assay results published in US20060286132A1, “Use of stellate ganglion block for the treatment of sexual dysfunction” (priority 2005, published 2006).

Tests used:
[1] = tested on: severe menopausal hot flashes; experiment: Self-reported hot flashes pre and post stellate ganglion block in women with severe menopausal hot flashes; format: in vivo
From the text: A stellate ganglion block is illustratively performed by placing the patient in the supine position (on the back) with the neck slightly extended and the jaw open. While the patient is usually conscious for the procedure, a medication such as Versed (midazolam hydrochloride), fentanyl, or other sedative is often administered, to relax the patient. A local anesthetic is also usually administered, to numb the skin and tissue down to the ganglion nerve. A needle is inserted toward the stellate ganglion. […] The needle 20 is shown inserted adjacent to the stellate ganglion 10. In the illustrative block, a contrast solution is injected through needle 20 via syringe 22, and the needle position is confirmed by fluoroscopy or other means, as are known in the art.
The anesthetic 30 is then delivered next to stellate ganglion 10 by injection via needle 20. Illustratively, 5 cc 0.375% Marcaine® (bupivacaine) may be used. However, it is understood that other anesthetics, illustratively lidocaine, morphine or other opioids, clonidine, botox, or tetracine, or a combination of anesthetic and epinephrine, may be used and that the dosage range may vary depending on the particular anesthetic and other factors, as are known in the art. Needle 20 is removed, and the patient is optionally placed in the sitting position to facilitate the spread of anesthesia inferiorly to the stellate ganglion. Illustratively, longer acting anesthetics such as bupivacaine are used, but other anesthetics may be used, as are known in the art. The stellate ganglion block may also be performed by radiofrequency lesioning, as is known in the art.
Six women suffering from severe menopausal hot flashes each received a standard stellate ganglion block (0.375% Marcaine, 5 cc), as described above. Hot flashes were assessed by self-reporting pre and post stellate ganglion block.

[2] = tested on: sexual dysfunction, including anorgasmia; experiment: Sexual function after stellate ganglion block in a person with sexual dysfunction including anorgasmia; format: in vivo

## CCCCN1CCCCC1C(=O)Nc1c(C)cccc1C (stereo not drawn) [Marcaine, bupivacaine]
[1]; 0.375% Marcaine, 5 cc, six women, initial block
  success of initial stellate ganglion block, as evidenced by a positive Homer's syndrome and anhydrosis: successful in all six subjects
[1]; initial stellate ganglion block, 0.375% Marcaine, 5 cc, six women
  duration of complete alleviation of hot flashes: 2-5 weeks
[1]; second stellate ganglion block, after mild hot flashes returned
  additional asymptomatic period of relief from hot flashes: 4-18 weeks
[2]; additional blocks over the course of 3 years
  sexual function with additional stellate ganglion blocks: maintain normal sexual function
[2]; person, block in accordance with Example 1
  sexual function following stellate ganglion block: return of normal sexual function
[2]; variation in treatment: administration of the stellate ganglion block through C7
  effect on sexual dysfunction, block administered through C7: ineffective
